The supplement of paper PMC10307832

Legend:
Assay in all cases: relative viability (nuclei count vs DMSO), 5 days (fraction); higher = more cells survive
[1] = compound: C[As](C)SC[C@H](NC(=O)CC[C@H](N)C(=O)O)C(=O)NCC(=O)O [Darinaparsin] + CC(=O)Nc1cccc(-n2c(=O)n(C3CC3)c(=O)c3c(Nc4ccc(I)cc4F)n(C)c(=O)c(C)c32)c1 [Trametinib] (partner 0.02 µM)
Procedure, shortened: (§1)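 Lung cancer cell lines in 1536-well plates were dosed by pin tool the day after seeding, either with one drug alone or with a fixed anchor-drug dose plus five library-drug doses (not always all listed) in √10 steps. After 5 days, cells were fixed and their nuclei stained in one step (final 0.05% Triton X-100, 1% formaldehyde, 1 ug/ml Hoechst), then counted on 4× images. Relative viability is the nuclei count in treated wells divided by that in vehicle wells. Values are medians of duplicate plates.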

AZ628 + Dasatinib = compound: CC1=C(C=C(C=C1)NC(=O)C2=CC(=CC=C2)C(C)(C)C#N)NC3=CC4=C(C=C3)N=CN(C4=O)C [AZ628] + Cc1nc(Nc2ncc(C(=O)Nc3c(C)cccc3Cl)s2)cc(N2CCN(CCO)CC2)n1 [Dasatinib] (partner 0.075 µM)
Procedure, shortened: as §1

QS11 + Decitabine = compound: C1CC2=C(C1)C=C(C=C2)OC3=NC(=C4C(=N3)N(C=N4)CC5=CC=C(C=C5)C6=CC=CC=C6)N[C@@H](CC7=CC=CC=C7)CO [QS11] + Nc1ncn([C@H]2C[C@H](O)[C@@H](CO)O2)c(=O)n1 [Decitabine] (partner 2 µM)
Procedure, shortened: as §1

[2] = compound: C[As](C)SC[C@H](NC(=O)CC[C@H](N)C(=O)O)C(=O)NCC(=O)O [Darinaparsin] + CC(C)C[C@H](NC(=O)[C@H](Cc1ccccc1)NC(=O)c1cnccn1)B(O)O [Bortezomib] (partner 0.002 µM)
Procedure, shortened: as §1

Cell Line	relative viability ([1]; first compound 0.08 µM)	relative viability ([1]; first compound 0.8 µM)	relative viability ([1]; first compound 2.53 µM)	relative viability ([1]; first compound 8 µM)	relative viability (AZ628 + Dasatinib; first compound 0.08 µM)	relative viability (AZ628 + Dasatinib; first compound 0.253 µM)	relative viability (AZ628 + Dasatinib; first compound 0.8 µM)	relative viability (AZ628 + Dasatinib; first compound 2.53 µM)	relative viability (AZ628 + Dasatinib; first compound 8 µM)	relative viability (QS11 + Decitabine; first compound 0.08 µM)	relative viability (QS11 + Decitabine; first compound 0.253 µM)	relative viability (QS11 + Decitabine; first compound 0.8 µM)	relative viability (QS11 + Decitabine; first compound 2.53 µM)	relative viability (QS11 + Decitabine; first compound 8 µM)	relative viability ([2]; first compound 0.08 µM)	relative viability ([2]; first compound 0.8 µM)	relative viability ([2]; first compound 2.53 µM)	relative viability ([2]; first compound 8 µM)
PC-14	1.08	0.798	0.741	0.923	0.274	0.289	0.315	0.262	0.146	0.244	0.196	0.199	0.22	0.195	0.925	0.77	0.753	1.11
LC-2-ad	0.975	0.903	0.815	1.08	0.713	0.419	0.396	0.365	0.149	0.776	0.775	0.691	0.722	0.712	1.2	1.02	0.951	1.33
201T	0.777	0.728	0.711	0.751	0.592	0.533	0.53	0.513	0.471	0.8	0.907	0.74	0.901	0.694	1.1	1.09	1.06	1.15
NCI-H2023	0.728	0.557	0.629	0.579	0.617	0.647	0.444	0.436	0.396	0.231	0.227	0.217	0.249	0.224	1.36	0.956	0.892	1.06
HOP-62	0.401	0.385	0.316	0.428	0.501	0.608	0.477	0.478	0.317	0.244	0.241	0.189	0.208	0.233	1.31	0.784	1.12	0.671
NCI-H661	0.646	0.618	0.532	0.677	0.87	0.644	0.629	0.666	0.659	0.511	0.585	0.474	0.554	0.46	0.975	0.853	0.92	0.889
NCI-H1734	0.724	0.611	0.655	0.677	0.424	0.552	0.525	0.511	0.349	0.538	0.532	0.478	0.457	0.51	1.37	0.937	0.854	0.986
EKVX	0.339	0.33	0.344	0.333	0.537	0.541	0.422	0.346	0.334	0.321	0.44	0.327	0.392	0.341	1.14	0.96	0.946	1.41
